Values quoted from earlier work, collected in PMC11839696 (European Journal of Nuclear Medicine and Molecular Imaging, 2024).

Test system: prostate cancer tissue
Set-up: AUC of the ROC analysis: unit not given beside the values

## O=C(O)CC[C@H](NC(=O)N[C@@H](CCCCNC(=O)[C@H](Cc1ccc2ccccc2c1)NC(=O)c1ccc(CNC(=O)[C@H](CCC(=O)O)NC(=O)[C@H](CCC(=O)O)NC(=O)c2ccc([18F])nc2)cc1)C(=O)O)C(=O)O [[^18F]-PSMA-1007]
At 75 CPM
  sensitivity: 65.1%
  specificity: 87%
Five patients, 113 cores
  optimal threshold for determining PCa: 75 CPM
Five patients, 113 cores, within 3 h after injection
  AUC of the ROC analysis: 0.81
